Results taken from US7585893B2, “Anti-cancer composition comprising DMXAA or related compound” (Cancer Research Technology Limited, priority 2002, dated 2009).
Where “and” joins values, the source holds several entries; their conditions need not be identical. Identical values can stand only once. Like-named read-outs stand apart in the source and are kept apart here.

Legend:
tumour blood flow = settings: Phase I clinical trials; well-tolerated doses; cited from earlier work
tumour = settings: Zhao et al, cited from earlier work
[1] = oral; Zhao et al; cited from earlier work
Colon 38 tumour = Colon 38 tumour growth delay, oral DMXAA (Experiments I and II); assay type: in vivo, C57B1/6 mice; settings: for mice cured completely: 30+15+15 mg/kg orally at 0, 4, 8 h
Method: C57B1/6 mice from the Animal Resource Unit, University of Auckland, were bred and housed under conditions of constant temperature and humidity, with sterile bedding and food, according to institutional ethical guidelines. All mice were aged between 8 and 12 weeks.
DMXAA was synthesized as the sodium salt (Rewcastle et al (1990) Journal of National Cancer Institute 82:528-529). DMXAA sodium salt was dissolved in sterile water and was administered orally by gavage.
Colon 38 tumour fragments (˜1 mm^3) were implanted subcutaneously (s.c.) in the left flank of anaesthetized (sodium pentobarbital, 81 mg/kg) mice. The experiments were initiated when tumours were approximately 3-4 mm (approximately 20 mg mass) in diameter. Tumour-bearing mice were treated with drugs according to the administration schedule described before, and the tumours measured using calipers, three times weekly thereafter. Tumour volumes were calculated as O.52a^2b, where a and b are the minor and major axes of the tumour, respectively. For graphical representation the arithmetic means were calculated for each time point, counting cured tumours as zero volume.
Two groups of 5 mice were implanted with tumours. The treatment group received DMXAA according to the schedule shown, the control group received no DMXAA. The individual mice in each group were not marked, and so any one line of the spreadsheet data shown in Table 1 could be from any individual mouse of a particular group.
The data were normalised, to enable plotting of the average tumour growth beginning from a relative size of 1 (see FIG. 1).
This example was performed using four groups of mice. Group 1 (control, n=5) received no treatment. Group 2 (n=5) received two 15 mg/kg doses of DMXAA. Group 3 (n=5) received a single 30 mg/kg dose of DMXAA. Group 4 (n=6) received three doses of DMXAA in concentrations of 30+15+15 mg/kg. In this experiment tumours were all 14 mm^3 at the start of the experiment. Data were normalised by division by 14 to give size relative to initial size.
The tumour growth delay experiment was conducted using 2 drug regimes: untreated controls (n=5) and oral DMXAA (n=5) administered in 3 doses. The first dose (30 mg/kg), was administered at t=0 hours followed by two lower doses each of 15 mg/kg at t=4 hours and t=8 hours respectively. Tumour size was measured thrice weekly and the results normalised as described above. The results are shown in Table 1 (raw data), Table 2 (normalised data) and FIG. 1, Expt. I (plotted as a graph).
In this example, the tumour growth delay experiment was conducted using 4 drug regimes: untreated controls (Group 1, n=5); two 15 mg/kg doses of DMXAA separated by a 4 hour interval (Group 2, n=5); a single 30 mg/kg dose of DMXAA (Group 3, n=5); three doses of DMXAA in concentrations of 30+15+15 mg/kg administered at t=0, 4 and 8 hours respectively (Group 4, n=6). The 30 mg/kg dose is the maximum tolerated single dose Zhao et al (Cancer Chemother Pharmacol. 2002 January; 49(1):20-6). Tumour size was measured thrice weekly and the results normalised as described above. The results are shown in Table 3 (raw data), Table 4 (normalised data) and FIG. 1, Expt. II (plotted as a graph).

[2] = test system: HT29 human colon cancer cells; test: HT29 human colon carcinoma xenograft, oral dosing (Experiment 3); assay type: in vivo; settings: HT29 xenograft in nude mice; 28 mg/kg oral, or 28 + 15 + 15 mg/kg at 0, 4, 8 h
Method: Nude mice were implanted with 5×10^6 HT29 human colon cancer cells, subcutaneously. […] Tumours were then measured using callipers every 2-3 days and volumes calculated. Comparative tumour growth curves are plotted with respect to those at the onset of treatment (relative tumour volume).

For `Cc1ccc2c(=O)c3cccc(CC(=O)O)c3oc2c1C` [DMXAA, 5,6-dimethylxanthenone-4-acetic acid], the “tumour blood flow (dynamic MRI)” value (tumour blood flow) is listed as “significant reduction in tumour blood flow”, the cures (tumour; intraperitoneal administration) is listed as 40% and the cures (tumour; single dose orally administered) is listed as “no cures”. For the same molecule, the “maximum tolerated single dose” value [1] was 30 mg/kg, the “side effects of multiple dose strategy” value (Colon 38 tumour; 30+15+15 mg/kg orally) was “without the serious side effects” and the mice cured completely (Colon 38 tumour; Expt I, within 24 days) was 4/5. The Tumor volume (Colon 38 tumour; Expt I, 30+15+15 mg/kg orally at 4 h intervals, 0 day, individual mice, 15 mg/kg) was 6.3 mm^3 and 18.8 mm^3 (2×) and 14.1 mm^3 (2×), the Tumor volume (Colon 38 tumour; Expt II, 30 mg/kg orally single dose, 0 day) was 14.0 mm^3 and the “tumour growth over time-course” value (Colon 38 tumour; Expt II, 2×15 mg/kg oral doses, 4 h interval) was “tumours continued to grow”. The Tumor volume (Colon 38 tumour; Expt II, 15 − 15 mg/kg orally, 4 h interval, 0 day) was 14.0 mm^3, the mice cured completely (Colon 38 tumour; Expt II, within 17 days) was 6/6 and the Tumor volume (Colon 38 tumour; Expt II, 30 − 16 − 15 mg/kg orally, 0 day) was 14.0 mm^3. The Tumor volume (Colon 38 tumour; Expt II, 30 − 16 − 15 mg/kg orally, 17 day) was 0.0 mm^3, the “Normalised tumour size (relative to initial size)” value (Colon 38 tumour; Expt II, oral 30 mg/kg single dose, day 0) was 1 and the “Normalised tumour size (relative to initial size)” value (Colon 38 tumour; Expt II, oral 15 − 15 mg/kg, day 0) was 1. The “Normalised tumour size (relative to initial size)” value (Colon 38 tumour; Expt II, oral 30 − 15 − 15 mg/kg, day 0) was 1, the “Normalised tumour size (relative to initial size)” value (Colon 38 tumour; Expt II, oral 30 − 15 − 15 mg/kg, day 17) was 0 and the “tumour growth over time-course” value (Colon 38 tumour; Expt II, single 30 mg/kg oral dose) was “tumours continued to grow”. For the same molecule, the “antitumour activity by the oral route” value [2] was “induces antitumour activity”.
